Measured values from patent EP1724268A1, “COMPOUND HAVING TGF-BETA INHIBITORY ACTIVITY AND PHARMACEUTICAL COMPOSITION CONTAINING SAME” (KIRIN BEER KABUSHIKI KAISHA, priority 2004, dated 2005).

Assays:
TGFβ signal = TGFβ signal inhibitory activity, (SBE)4-Luc reporter in A549 cells (Test Examples 1A and 1B); format: cell-based, human; conditions: Homo sapiens, A549, TGFβ-1 2 ng/ml, 4 hr, Table 1A, read-out: TGFβ inhibition rate, %; for inhibition at 3 µM: test compound 3 µM; for inhibition at 10 µM: test compound 10 µM
Summary of the method: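 Compounds at 3 µM and 10 µM (some 1 µM) were added with 2 ng/ml TGFβ-1 to A549 cells stably expressing an SBE-driven luciferase, then cultured 4 hr. Chemiluminescent luciferase signal gave % inhibition versus TGFβ-alone and no-TGFβ controls.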

[1] = system: rat unilateral ureteral obstruction (UUO) model; assay: Anti-fibrotic activity, rat unilateral ureteral obstruction (UUO) model (Test Example 5); format: in vivo, SD rats; conditions: UUO treatment, left kidney, corrected by total protein of kidney extract, average of 6 rats ± standard deviation
Experimental: The anti-fibrotic activity of the compounds described in the present specification was evaluated using a rat unilateral ureteral obstruction (UUO) model which is a renal fibrosis model. Compound 50 and compound 159 were used as the test compound. Six week-old male SD rats (available from Charles River Japan, Inc.) were purchased and were pre-raised before use in experiments. Regarding diets and drinking water, pellets CE-2 (available from CLEA JAPAN INC.) and sterile tap water were freely fed. The rats underwent laparotomy under pentobarbital anesthesia, and the left renal urinary duct was ligated. Thereafter, the […] underwent suturing operation and were divided into a vehicle administration group (n = 6) and a test compound administration group (n = 6) using the weight as an index. The test compound was mixed in amounts of 0.03% and 0.1% in powder diet CE-2 (available from CLEA JAPAN INC.), and the mixtures were fed as a diet to each rat group from the first day of the ureteral obstruction.
After administration of the mixed feed for 7 days, the left kidney was removed, and the hydroxyproline content as an index of organ fibrosis was measured by the following method. Specifically, renal pieces were first placed in 6 N HCl, were homogenized, and were then heated on a heat block at 130°C for 3 hr to hydrolyze protein. Thereafter, the suspension of renal pieces was neutralized by the addition of an appropriate amount of 4 N NaOH. The neutralized suspension was centrifuged (1000 rpm, 5 min, room temperature) to obtain the supernatant as a kidney extract. A chloramine T liquid, a perchloric acid solution (a solution prepared by adding distilled water to 31.5 ml of 60% perchloric acid to adjust the total volume to 100 ml), and a p-dimethylaminobenzaldehyde solution (a solution prepared by adding […] to 20 g of p-dimethylaminobenzaldehyde to adjust the total volume to 100 ml) were added to the kidney extract, and a reaction was allowed to proceed at 60°C for 20 min. The absorbance at 557 nm was then measured. The content of hydroxyproline was determined from the measured data based on a calibration curve for hydroxyproline prepared using control. Further, the content of hydroxyproline thus determined was corrected according to the total protein content of the kidney extract.
The values in the tables are average of data on 6 rats for each group ± standard deviation.

BMP4 signal = assay: BMP signal inhibitory activity, p(GCCG)12-Luc reporter in HepG2 cells (Test Example 7); format: cell-based, human; conditions: for inhibitory activity against BMP4 signals: as compared with Example 274 described in WO 03/00660; for Selectivity for BMP (times): Inhibitory activity against BMP4 signal (IC50)/Inhibitory activity against TGFβ signal (IC50), HepG2 reporter cells, BMP4 20 ng/ml, TGFβ-1 2 ng/ml, 4 hr
Source text: The inhibitory activity of the compounds according to the present invention against BMP signals was studied using a cell line through which TGFb and BMP signals can be simultaneously observed. Specifically, the cell lines capable of detecting the two signal was generated by transfecting reporter plasmids for detection of TGFb and BMP signals into a human hepatocarcinoma cell line HepG2(available from ATCC) and was used as evaluation cells. For detection of TGF-beta signal, the plasmid having four tandem binding sequences of Smad2/3, TGF-beta signal transducers, to the upstream of a luciferases gene were used as a reporter plasmid (p(SBE)4-Luc/hygro). For detection of BMP signal, the plasmid having twelve tandem binding sequences of Smadl/5/8, BMP signal transducers, to the upstream of a luciferases gene were used as a reporter plasmid (p(GCCG)12-Luc/neo), according to the method described in Mol Biol Cell. 2000 11(2): 555-65. The test compound and TGFβ-1 (2 ng/ml) or BMP4 (20 ng/ml) were added to the cells, and the mixture was cultured for 4 hr. The compounds according to the present invention synthesized in the working example were used as the test compound. […] After the culture, the luciferase activity of the cells was measured by chemiluminescence (Steady Glo (trademark) luciferase assay system, available from Promega). Likewise, the luciferase activity was measured as control for the culture of cells with only TGFβ or BMP4 added thereto and the culture of cells with the addition of none of TGFβ, BMP4 and the test compound. The inhibitory activity IC50 of the compounds against TGFβ and BMP4 was calculated based on the results of measurement, and the kinase selectivity for BMP4 was determined by the following method. Kinase selectivity for BMP4 (times) = Inhibitory activity against BMP4 signal (IC50)/Inhibitory activity against TGFβ signal (IC50)

A549 cells = assay: Cell growth inhibitory activity using A549 cells (Test Example 6); format: cell-based, Human; conditions: for inhibition at 30 µM: Homo sapiens, A549, compound 30 µM, 5% serum, 40 hr, counting kit-8, read-out: Cell growth inhibition rate (%); for inhibitory activity against cell growth of A549 cells: as compared with Example 274 described in WO 03/00660; for inhibitory activity against cell growth or BMP4 signals: as compared with Example 261 or Example 269 described in WO 03/00660
Experimental: Human lung cancer epithelial cells (A549) (available from ATCC) were suspended to a concentration of 3 × 10^4/ml in a DMEM/F12 medium containing 10%FCS, and the suspension was inoculated in 100 µl portions in wells of a 96-well plate. On the following day, a stock solution of the test compound which had been adjusted to 10 mM with DMSO was adjusted with a serum-free DMEM/F12 medium to a dose (60 µM) which was twice the evaluation concentration. After removing the medium inoculated in the 96 wells on the previous day, the solution was added in 50 µl portions to the plate. Next, a DMEM/F12 medium containing 10% serum was added in 50 µl portions to the wells, followed by culturing at 37°C for 40 hr. The final concentration of the serum and the concentration of the evaluation compound were 5% and 30 µM, respectively. The compounds according to the present invention synthesized in the working example were used as the test compound. […]
After 40 hr, the culture was removed, and 100 µl of a solution prepared by diluting counting kit-8 (purchased from Dojindo) with a serum-free F12 medium by 10 times was added, followed by culturing at 37°C for 20 to 30 min. After the confirmation of suitable color development, the absorbance at 450 nm was measured with ARVO (purchased from Wallach Bethold Japan). The cell growth inhibition in the test compound added wells were determined by presuming the absorbance value in the test compound-free wells to be 0% and the absorbance value in the cell-free wells to be 100%.

With `CCc1ccc(Oc2ccnc3cc(OC)c(OC)cc23)c(-c2ncccn2)n1` [Compound 50, 4-(6-Ethyl-2-pyrimidin-2-yl-pyridin-3-yloxy)-6,7-dimethoxy-quinoline] the inhibition at 3 µM (TGFβ signal) was 98%, the inhibition at 10 µM (TGFβ signal) was 100% and the “Hydroxyproline content” value ([1]; 0.03% mixed feed for 7 days, Table 5a) was 7.33 ± 0.67 mg/g. The “Hydroxyproline content” value ([1]; 0.1% mixed feed for 7 days, Table 5a) was 4.67 ± 0.22 mg/g.
`Cc1ccc(Oc2ccnc3cc(C(N)=O)ccc23)c(-c2ncccn2)n1` [Compound 217, 4-(6-Methyl-2-pyrimidin-2-yl-pyridin-3-yloxy)-quinoline-7-carboxylic acid amide] was tested, and the “inhibitory activity against BMP4 signals” value (BMP4 signal) was “reduced inhibitory activity”, the inhibition at 3 µM (TGFβ signal) was 90% and the inhibition at 10 µM (TGFβ signal) was 100%. The inhibition at 30 µM (A549 cells) was 4% and the “inhibitory activity against cell growth of A549 cells” value (shortened to “inhibitory activity … of A549 cells”) (A549 cells) was “reduced inhibitory activity”.
With `CCc1ccc(Oc2ccnc3cc(F)c(OCCO)cc23)c(-c2ncccn2)n1` [Compound 225, 2-[4-(6-Ethyl-2-pyrimidin-2-yl-pyridin-3-yloxy)-7-fluoro-quinolin-6-yloxy]-ethanol] the “inhibitory activity against BMP4 signals” value (BMP4 signal) was “reduced inhibitory activity”, the inhibition at 3 µM (TGFβ signal) was 89% and the inhibition at 10 µM (TGFβ signal) was 99%. For the same compound, the inhibition at 30 µM (A549 cells) was 8% and the “inhibitory activity … of A549 cells” value (A549 cells) was “reduced inhibitory activity”.
For `CCc1ccc(Oc2ccnc3ccc(OCCO)cc23)c(-c2ncccn2)n1` [Compound 192, 2-[4-(6-Ethyl-2-pyrimidin-2-yl-pyridin-3-yloxy)-quinolin-6-yloxy]-ethanol], the “Selectivity for BMP (times)” value (BMP4 signal) was over 176 times, the “inhibitory activity against BMP4 signals” value (BMP4 signal) was “reduced inhibitory activity” and the inhibition at 3 µM (TGFβ signal) was 97%. For the same compound, the inhibition at 10 µM (TGFβ signal) was 100%, the inhibition at 30 µM (A549 cells) was 3% and the “inhibitory activity … of A549 cells” value (A549 cells) was “reduced inhibitory activity”.
For `CCc1ccc(Oc2ccnc3cc(C(N)=O)c(O)cc23)c(-c2ncccn2)n1` [Compound 194, 4-(6-Ethyl-2-pyrimidin-2-yl-pyridin-3-yloxy)-6-hydroxy-quinoline-7-carboxylic acid amide], the “Selectivity for BMP (times)” value (BMP4 signal) was 51 times, the “inhibitory activity against BMP4 signals” value (BMP4 signal) was “reduced inhibitory activity” and the inhibition at 3 µM (TGFβ signal) was 60%. For the same compound, the inhibition at 30 µM (A549 cells) was -15% and the “inhibitory activity … of A549 cells” value (A549 cells) was “reduced inhibitory activity”.
With `Cc1ccc(Oc2ccnc3ccc(O)cc23)c(-c2ncccn2)n1` [Compound 201, 4-(6-Methyl-2-pyrimidin-2-yl-pyridin-3-yloxy)-quinolin-6-ol] the “inhibitory activity against BMP4 signals” value (BMP4 signal) was “reduced inhibitory activity”, the inhibition at 3 µM (TGFβ signal) was 82% and the inhibition at 30 µM (A549 cells) was 2%. The “inhibitory activity … of A549 cells” value (A549 cells) was “reduced inhibitory activity”.
In the case of `CCc1ccc(Oc2ccnc3cc(OC)c(F)cc23)c(-c2ncccn2)n1` [Compound 159, 4-(6-Ethyl-2-pyrimidin-2-yl-pyridin-3-yloxy)-6-fluoro-7-methoxy-quinoline], the inhibition at 3 µM (TGFβ signal) is reported as 99%, the inhibition at 10 µM (TGFβ signal) is reported as 100% and the “Hydroxyproline content” value ([1]; 0.03% mixed feed for 7 days, Table 5b) is reported as 22.47 ± 0.82 mg/g. For the same compound, the “Hydroxyproline content” value ([1]; 0.1% mixed feed for 7 days, Table 5b) was 17.28 ± 0.87 mg/g.
With `CCc1ccc(Oc2ccnc3ccc(OCCO)cc23)c(-c2ccccn2)n1` [Compound 181, 2-[4-(6-Ethyl-[2,2']bipyridinyl-3-yloxy)-quinolin-6-yloxy]-ethanol] the “Selectivity for BMP (times)” value (BMP4 signal) was 308 times, the inhibition at 3 µM (TGFβ signal) was 100% and the inhibition at 10 µM (TGFβ signal) was 100%. The inhibition at 30 µM (A549 cells) was -7% and the “inhibitory activity against cell growth or BMP4 signals” value (A549 cells) was “reduced inhibitory activity”.
With `CCc1ccc(Oc2ccnc3ccc(OCCOC(C)=O)cc23)c(-c2ccccn2)n1` [Compound 182, 2-[4-(6-Ethyl-[2,2']bipyridinyl-3-yloxy)-quinolin-6-yloxy]-ethyl acetate] the “Selectivity for BMP (times)” value (BMP4 signal) was 195 times, the inhibition at 3 µM (TGFβ signal) was 99% and the inhibition at 10 µM (TGFβ signal) was 100%. The inhibition at 30 µM (A549 cells) was -8% and the “inhibitory activity against cell growth or BMP4 signals” value (A549 cells) was “reduced inhibitory activity”.
With `CCc1ccc(Oc2ccnc3ccc(OCCN)cc23)c(-c2ncccn2)n1` [Compound 204, 2-[4-(6-Ethyl-2-pyrimidin-2-yl-pyridin-3-yloxy)-quinolin-6-yloxy]-ethylamine] the “inhibitory activity against BMP4 signals” value (BMP4 signal) was “reduced inhibitory activity”, the inhibition at 3 µM (TGFβ signal) was 84% and the inhibition at 30 µM (A549 cells) was -9%. For the same compound, the “inhibitory activity … of A549 cells” value (A549 cells) was “reduced inhibitory activity”.
For `CCc1ccc(Oc2ccnc3ccc(OS(C)(=O)=O)cc23)c(-c2ccccn2)n1` [Compound 187, 4-(6-Ethyl-[2,2']bipyridinyl-3-yloxy)-quinolin-6-yl methanesulfonate], the “Selectivity for BMP (times)” value (BMP4 signal) was 72 times, the inhibition at 3 µM (TGFβ signal) was 100% and the inhibition at 10 µM (TGFβ signal) was 100%. The inhibition at 30 µM (A549 cells) was 0% and the “inhibitory activity against cell growth or BMP4 signals” value (A549 cells) was “reduced inhibitory activity”.
For `Cc1cc(Oc2ccnc3ccc(OCCO)cc23)c(-c2ncccn2)nc1C` [Compound 200, 2-[4-(5,6-Dimethyl-2-pyrimidin-2-yl-pyridin-3-yloxy)-quinolin-6-yloxy]-ethanol], the “Selectivity for BMP (times)” value (BMP4 signal) was 75 times, the “inhibitory activity against BMP4 signals” value (BMP4 signal) was “reduced inhibitory activity” and the inhibition at 3 µM (TGFβ signal) was 85%. For the same compound, the inhibition at 30 µM (A549 cells) was 0% and the “inhibitory activity … of A549 cells” value (A549 cells) was “reduced inhibitory activity”.
